{"source": "patent US20060166941A1", "about": "“Treatment and/or prevention of non-viral epithelial damage” (Epistem Limited, priority 2003, published 2006)", "key": {"oral mucosa": {"tested_on": "oral mucosa", "assay": "In vivo protection of oral mucosa following radiation damage (20 Gy head only), ventral tongue cellularity", "set-up": "species or system mice", "conditions": "50 mg/kg 1 hr prior to 20 Gy (head only) and once a day until sampling; versus vehicle", "from_the_text": "In Vivo Protection of Oral Mucosa Following Radiation Damage. The ability of foscarnet (phosphonoformic acid trisodium salt hexahydrate) to prevent radiological damage to oral mucosa was illustrated by the following experiment. The model of cytotoxic insult used was treatment with 20 Gy X-ray radiation (head only) at a dose rate of 0.7 Gy/minute. Such radiation treatment provides a model of radiotherapy administered to patients undergoing treatment for cancer Experimental groups, each of four mice, were established as set out below: Group 1: Received intra-peritoneal injection, containing 50 mg foscarnet/kilogram bodyweight, in sterile water, one hour prior to radiation. Received one further identical injection on each of the two days following radiation. On the third day after radiation the animals were killed, and oral tissue harvested for analysis. […] Using a Zeiss AxioHOME the number of bromodeoxyuridine labelled and unlabelled cells were assessed in both the basal and suprabasal layers of the ventral surface of the tongue. The area from the basal layer to the stratum corneum stratum granulosum interface was measured along with the length of the basal layer. […] From these measurements the damage that the radiation had caused to the tongue could be assessed as overall cellularity of the tongue or the total number of cells/unit area (mm^2). […]"}, "[1]": {"tested_on": "clonogenic stem cells of the digestive epithelium", "assay": "In vivo protection of intestinal epithelium clonogenic stem cells, radiation damage, independent experiment 1 (regenerating crypts)", "set-up": "species or system mice", "conditions": "for corrected crypts/circumference / no. crypts/circumference: day 4; for Protection Factor: 13Gy, corrected crypts treated / vehicle", "from_the_text": "In Vivo Protection of Intestinal Epithelium Clonogenic Stem Cells—Radiation Damage Independent Experiment 1.\nThe ability of foscarnet (phosphonoformic acid trisodium salt hexahydrate) to prevent radiological damage to clonogenic stem cells of the digestive epithelium was illustrated by the following experiment.\nThe model of radiological insult used was treatment with 13 Gy X-ray whole body radiation at a dose rate of 0.7 Gy/minute. Such radiation treatment provides a model of radiotherapy administered to patients undergoing treatment for cancer.\nFour experimental groups, each of six mice, were established as set out below:\nGroup 1: Received intra-peritoneal injection, containing 50 mg foscarnet/kilogram bodyweight, in sterile water, one hour prior to radiation treatment. Received one further identical injection on each of the three days following radiation treatment.\nGroup 2: Received intra-peritoneal injection, containing 100 mg foscarnet/kilogram bodyweight, in sterile water, one hour prior to radiation treatment. Received one further identical injection on each of the three days following radiation treatment.\nGroup 3: Vehicle control. Received intra-peritoneal injection, of sterile water, one hour prior to radiation treatment. Received one further identical injection on each of the three days following radiation treatment.\nGroup 4: Untreated controls. Received neither injections nor exposure to radiation.\nOn the fourth day after treatment the animals of each group were killed, and intestinal tissue harvested for histological analysis. Tissue sections were stained with haemotoxylin and eosin, and were analysed for the presence of regenerating intestinal crypts. Regenerating intestinal crypts are derived from one or more surviving clonogenic stem cells, whereas sterilised crypts (containing no surviving stem cells) disappear within two days of irradiation. The number of regenerating crypts per intestinal circumference was counted, and the mean crypt width measured. Scores for each animal were then corrected to account for the probability of preferentially scoring larger crypts according to the following equation: [formula]\nFor each treatment a Protection Factor was calculated using the following equation: corrected crypts/circumference treated corrected crypts/circumference untreated (vehicle)"}, "intestinal crypt cells": {"tested_on": "intestinal crypt cells", "assay": "Epithelial cell kinetic evaluation following oral administration (BrdUrd labelling, tolerability)", "format": "in vivo", "conditions": "500 mg/kg oral gavage once a day for 4 days", "protocol": "Epithelial Cell Kinetic Evaluation Following Oral Administration of Foscarnet Phosphonoformic Acid Trisodium Salt Hexahydrate).\nIntestinal epithelial cell stimulation following an oral application of foscarnet (phosphonoformic acid trisodium salt hexahydrate) was illustrated by the following experiment.\nTwo experimental groups, each of three mice, were established as set out below:\nGroup 1: Received oral gavage, containing 500 mg foscarnet/kilogram bodyweight, in sterile water, once a day for 4 days. On the fifth day the animals received a pulse of 10 mg Bromodeoxyuridine (BrdUrd) and 40 minutes laster were killed and small intestine and kidneys harvested for analysis.\nGroup 2: Received oral gavage of sterile water, once a day for 4 days On the fifth day the animals received a pulse of 10 mg Bromodeoxyuridine and 40 minutes laster were killed and small intestine and kidneys harvested for analysis.\nSlides were immunohistochemically labelled for BrdUrd and counterstained with thionin to assess intestinal epithelial cell kinetic changes with oral administration of foscarnet. To assess epithelial cell kinetic changes, 50 small intestinal crypts per animal were quantified on a cell positional basis for the number of positively labelled S-phase cells at each cell position in the crypt. Quantification starts at the bottom of the crypt (cell position 1) and continues up one side of the crypt assessing each cell in turn to the crypt villus junction."}, "[2]": {"conditions": "13Gy plus 50 mg foscarnet -1 hr, 1, 2, 3 day, group Average"}, "[3]": {"conditions": "13Gy plus 50 mg foscarnet -1 hr, 1, 2, 3 day, individual mice"}, "[4]": {"conditions": "13Gy plus 100 mg foscarnet -1 hr, 1, 2, 3 day, group Average"}, "[5]": {"conditions": "13Gy plus 100 mg foscarnet -1 hr, 1, 2, 3 day, individual mice"}}, "note": "Values joined by “and” are separate entries in the source; they are usually repeats but may differ in a detail not shown here. Equal values may be shown once. Where a name gives a salt, the structure may show the parent alone."}
{"smiles": "O=C(O)P(=O)(O)O", "note": "[foscarnet, phosphonoformic acid trisodium salt hexahydrate]", "values": [{"measurement": "average number of cells/unit area, ventral tongue epithelium (FIG. 7)", "setting": "oral mucosa", "result": "increased"}, {"measurement": "overall cellularity of the ventral tongue over time (FIG. 6)", "setting": "oral mucosa", "result": "increased"}, {"measurement": "corrected crypts/circumference", "setting": "[1]; [2]", "result": 3.8}, {"measurement": "no. crypts/circumference", "setting": "[1]; [2]", "result": 6.8}, {"measurement": "corrected crypts/circumference", "setting": "[1]; [3]", "result": "2.6 and 6.1 and 3.6 and 4.3 and 2.5"}, {"measurement": "no. crypts/circumference", "setting": "[1]; [3]", "result": "4.8 and 10.7 and 6.6 and 7.2 and 4.5"}, {"measurement": "corrected crypts/circumference", "setting": "[1]; [4]", "result": 3.2}, {"measurement": "no. crypts/circumference", "setting": "[1]; [4]", "result": 5.6}, {"measurement": "corrected crypts/circumference", "setting": "[1]; [5]", "result": "3.0 and 3.6 and 2.5 and 2.1 and 4.8"}, {"measurement": "no. crypts/circumference", "setting": "[1]; [5]", "result": "5.5 and 6.4 and 4.3 and 3.8 and 8.0"}, {"measurement": "Protection Factor", "setting": "[1]; 50 mg foscarnet -1 hr, 1, 2, 3 day", "result": 1.52}, {"measurement": "more crypts compared to mice treated with vehicle alone", "setting": "[1]; 13 Gy, 50 mg/kg foscarnet", "result": "~50", "unit": "%"}, {"measurement": "more small intestinal clonogenic stem cells survived", "setting": "[1]; 13 Gy, 50 mg/kg foscarnet", "result": "at least 50%"}, {"measurement": "Protection Factor", "setting": "[1]; 100 mg foscarnet -1 hr, 1, 2, 3 day", "result": 1.28}, {"measurement": "numbers of intestinal crypts after exposure to radiation", "setting": "[1]; Groups 1 and 2 (50 mg foscarnet and 100 mg foscarnet), 13 Gy", "result": "increased numbers of intestinal crypts"}, {"measurement": "deaths or signs of illness", "setting": "intestinal crypt cells", "result": "no deaths or signs of illness"}, {"measurement": "tolerability of relatively high oral doses", "setting": "intestinal crypt cells", "result": "tolerated without notable toxicity"}, {"measurement": "kidney damage judged by histological sectioning", "setting": "intestinal crypt cells; end of treatment period", "result": "neither of the groups showed overt signs of kidney damage"}, {"measurement": "BrdUrd labelling index in intestinal crypt cells (FIG. 5)", "setting": "intestinal crypt cells; versus vehicle control", "result": "stimulating effect on intestinal crypt cells"}]}
